Measured values as given in PubChem BioAssay (NCI).
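Each compound was tested at five concentrations against cells in 96-well plates for 48 hours. Here, GI50 denotes the concentration required for 50% inhibition of growth. TGI denotes the concentration required for complete inhibition of growth.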

Tests used:
Experiment in all cases: NCI-60 cell line screen, 48 h
SK-MEL-5 melanoma = tested on: SK-MEL-5 melanoma
SK-OV-3 ovarian = tested on: SK-OV-3 ovarian
HL-60(TB) leukemia = tested on: HL-60(TB) leukemia
TK-10 renal = tested on: TK-10 renal
SN12C renal = tested on: SN12C renal
NCI-H460 lung = tested on: NCI-H460 lung
U251 CNS = tested on: U251 CNS
EKVX NSCLC = tested on: EKVX NSCLC
CCRF-CEM leukemia = tested on: CCRF-CEM leukemia
COLO 205 colon = tested on: COLO 205 colon

Structure (SMILES) | GI50 (SK-MEL-5 melanoma) | TGI (SK-MEL-5 melanoma) | GI50 (SK-OV-3 ovarian) | TGI (SK-OV-3 ovarian) | GI50 (HL-60(TB) leukemia) | TGI (HL-60(TB) leukemia) | GI50 (TK-10 renal) | TGI (TK-10 renal) | GI50 (SN12C renal) | TGI (SN12C renal) | GI50 (NCI-H460 lung) | TGI (NCI-H460 lung) | GI50 (U251 CNS) | TGI (U251 CNS) | GI50 (EKVX NSCLC) | TGI (EKVX NSCLC) | GI50 (CCRF-CEM leukemia) | TGI (CCRF-CEM leukemia) | GI50 (COLO 205 colon) | TGI (COLO 205 colon)
CCCCOC(=O)c1ccc(NC(=O)CCl)cc1 | 1.55 µM | 3.04 µM | 10.5 µM | 22.6 µM | 2.28 µM | 4.86 µM | 1.91 µM | 3.85 µM | 1.56 µM | 3.36 µM | 3.09 µM | 10.7 µM | 1.71 µM | 3.1 µM | 2.37 µM | 7.13 µM | 0.789 µM | 6.07 µM | – | –
O=CC(Br)C(Br)c1ccccc1 (configuration not stated) | 3.58 µM | 13.8 µM | 16.6 µM | 30.3 µM | 0.462 µM | 2.32 µM | 1.74 µM | 3.56 µM | 3.06 µM | 11.4 µM | 14.5 µM | 31.2 µM | 7.4 µM | 20.4 µM | – | – | 0.374 µM | 1.94 µM | 2.17 µM | 4.55 µM
CC(C)N1CCC2(CC1)NNc1ncccc1-n1cccc12 | – | > 100 µM | – | – | – | > 100 µM | – | > 100 µM | – | > 100 µM | – | > 100 µM | – | > 100 µM | – | > 100 µM | – | > 100 µM | – | > 100 µM
O=C(O)C1C(=O)Oc2c(cccc2[N+](=O)[O-])C1O (configuration not stated) | – | > 100 µM | – | – | – | > 100 µM | – | > 100 µM | – | > 100 µM | – | > 100 µM | – | > 100 µM | – | > 100 µM | – | > 100 µM | – | > 100 µM
Cc1cc([N+](=O)[O-])ccc1NS(=O)(=O)c1cc(Cl)ccc1Cl | 1.54 µM | 3.83 µM | 2.51 µM | 8.63 µM | 3.13 µM | 12.8 µM | 3.54 µM | 75.2 µM | 2.87 µM | > 100 µM | 2.97 µM | > 43.6 µM | 2.9 µM | 17.4 µM | – | – | 3.47 µM | > 72.4 µM | 3.23 µM | 12.3 µM
COC(=O)c1ccc(NC(=O)c2cc(OC)c(OC)c(OC)c2)cc1 | – | – | – | 98.4 µM | – | 4.8 µM | – | > 100 µM | – | – | – | > 100 µM | – | – | – | > 100 µM | – | > 100 µM | – | –
CC(=O)Nc1ccc(-c2nnc(SCC(=O)Nc3cccc([N+](=O)[O-])c3)o2)cc1 | – | 27.1 µM | – | 24.5 µM | – | 58.2 µM | – | 67.5 µM | – | 33.2 µM | – | 28.8 µM | – | 29.3 µM | – | – | – | > 100 µM | – | 33.8 µM
CCOc1ccccc1N1C(=O)C(=O)C(c2nc3ccccc3o2)/C(=N\N)C1=O (configuration not stated) | – | > 100 µM | – | > 100 µM | – | > 100 µM | – | > 100 µM | – | > 100 µM | – | – | – | > 100 µM | – | > 100 µM | – | > 100 µM | – | > 100 µM
COc1c2c(c(CC=C(C)C)c3oc(=O)c(-c4ccc(O)cc4)c(O)c13)OC(C)(C)C=C2 | – | 25.8 µM | – | – | – | 51 µM | – | > 100 µM | – | > 100 µM | – | 68.4 µM | – | 27.8 µM | – | 95.8 µM | – | 76.8 µM | – | 40.2 µM
NC(=O)C(=Cc1ccc(CP(=O)(O)O)cc1)C(N)=O | – | > 100 µM | – | > 100 µM | – | – | – | > 100 µM | – | > 100 µM | – | > 100 µM | – | > 100 µM | – | > 100 µM | – | – | – | > 100 µM
O=C(Nc1ccc2[nH]c(C(=O)N3CC(CCl)c4c3cc([N+](=O)[O-])c3ccccc43)cc2c1)c1cc2ccccc2o1 (configuration not stated) | > 1100 µM | > 1100 µM | > 1100 µM | > 1100 µM | 33.2 µM | 380 µM | – | – | > 1100 µM | > 1100 µM | 21 µM | > 1100 µM | > 1100 µM | > 1100 µM | > 1100 µM | > 1100 µM | 66.4 µM | 377 µM | > 1100 µM | > 1100 µM
O=c1cc(-c2ccccc2)[nH]c2c(Cl)cccc12 | – | 45.4 µM | – | – | – | > 100 µM | – | > 100 µM | – | > 100 µM | – | > 100 µM | – | > 100 µM | – | > 100 µM | – | > 100 µM | – | > 100 µM
CC(C)(O)[C@@H]1CC[C@@]2(C)CCC[C@H](O)[C@H]2C1 | – | > 100 µM | – | > 100 µM | – | > 100 µM | – | > 100 µM | – | > 100 µM | – | > 100 µM | – | > 100 µM | – | – | – | > 100 µM | – | > 100 µM
Cc1ccc(C(=O)N2c3ccccc3N(C)n3cccc3C2CC(=O)O)cc1 (configuration not stated) | – | > 100 µM | – | – | – | > 100 µM | – | > 100 µM | – | > 100 µM | – | > 100 µM | – | – | – | > 100 µM | – | > 100 µM | – | > 100 µM
CCOC(=O)c1cc2c(cn1)[nH]c1cccc(N)c12 | – | > 100 µM | – | – | – | 28.6 µM | – | > 100 µM | – | > 100 µM | – | > 100 µM | – | > 100 µM | – | – | – | > 100 µM | – | > 100 µM
CCCOC(=O)N[C@H]1CCc2cc(OC)c(OC)c(OC)c2-c2ccc(SC)c(=O)cc21 | < 0.01 µM | 0.018 µM | – | – | < 0.01 µM | < 0.0129 µM | 3.61 µM | > 70.5 µM | < 0.01 µM | > 100 µM | < 0.01 µM | 11.7 µM | < 0.01 µM | > 34.1 µM | < 0.01 µM | > 100 µM | < 0.01 µM | 19.7 µM | < 0.01 µM | 0.0108 µM
CC1(C)CCC[C@]2(C)c3cc(O)ccc3CC[C@@H]12 | 11.3 µM | 23.4 µM | – | – | 16 µM | 48.5 µM | 18.2 µM | 33.7 µM | 17.5 µM | 31.3 µM | 18.6 µM | 40.9 µM | 14.6 µM | 29.1 µM | 21.5 µM | 36.7 µM | – | – | 20.4 µM | 46 µM
C[n+]1c2ccccc2c(Nc2ccc(NS(=O)(=O)CCCCN=C(N)N)cc2)c2ccc(N)cc21 | 1.2 µM | 15.2 µM | 2.77 µM | > 100 µM | 1.64 µM | > 56.1 µM | 6.47 µM | 58.3 µM | 0.0443 µM | > 100 µM | – | 12.1 µM | 0.22 µM | 54 µM | – | – | 0.303 µM | > 35.9 µM | 1.67 µM | > 100 µM
N#Cc1ccc(C2C3=C(CCCC3=O)OC3=C2C(=O)c2ccccc2C3=O)cc1 (configuration not stated) | 1.72 µM | 3.25 µM | 3.17 µM | 9.6 µM | 0.259 µM | 1.27 µM | – | – | 1.16 µM | 3.16 µM | 3.64 µM | 13.3 µM | 1.7 µM | 3.16 µM | 1.28 µM | 3.86 µM | 0.951 µM | > 100 µM | 1.86 µM | 3.63 µM
Cc1ccc(S(=O)(=O)C2c3nc4ccccc4cc3-c3nc4ccccc4nc32)cc1 (configuration not stated) | – | > 100 µM | – | > 100 µM | – | > 100 µM | – | > 100 µM | – | > 100 µM | – | – | – | > 100 µM | – | > 100 µM | – | > 100 µM | – | > 100 µM
CCN(CC)CCCC(C)Nc1c2ccc(Cl)cc2nc2cc(OC)c(OC)cc12 (configuration not stated) | 1.81 µM | 3.21 µM | 2.65 µM | 8.87 µM | 2.81 µM | 9.31 µM | 1.99 µM | 5.04 µM | 3.31 µM | 17.8 µM | 1.3 µM | 4.05 µM | – | – | 1.78 µM | 5.06 µM | 1.52 µM | 10.3 µM | – | –
O=C1c2cc(-c3ccccc3)ccc2-c2c1c1ccc([N+](=O)[O-])cc1c(=O)n2CCCBr | > 50 µM | > 50 µM | 33.1 µM | > 50 µM | – | – | 17.5 µM | > 50 µM | > 50 µM | > 50 µM | > 50 µM | > 50 µM | > 31.9 µM | > 50 µM | > 50 µM | > 50 µM | 0.16 µM | 0.6 µM | > 50 µM | > 50 µM
CCCCCCCCC(O)C#CC(N)=O (configuration not stated) | – | 24.3 µM | – | – | – | 40.3 µM | – | 30.8 µM | – | 23.8 µM | – | 22 µM | – | 20.9 µM | – | 23.6 µM | – | 72.5 µM | – | –
O=c1nc(NC(c2ccccc2)(c2ccccc2)c2ccccc2)ccn1CCO | – | – | – | – | – | > 100 µM | – | > 100 µM | – | > 100 µM | – | > 100 µM | – | > 100 µM | – | > 100 µM | – | – | – | > 100 µM
COc1cc2c(cc1OC)C(CC1(O)CCCCC1)N(S(=O)(=O)c1ccc(C)cc1)CC2 (configuration not stated) | > 10 µM | > 10 µM | > 10 µM | > 10 µM | – | – | > 10 µM | > 10 µM | > 10 µM | > 10 µM | > 10 µM | > 10 µM | > 10 µM | > 10 µM | – | – | > 10 µM | > 10 µM | > 10 µM | > 10 µM
COc1ccc(C2=Nc3c/c(=C\c4c(O)[nH]c5ccc(Cl)cc45)ccc3=N2)cc1 | – | – | 2.23 µM | 5.23 µM | 1.51 µM | 3.94 µM | 2.45 µM | 4.42 µM | – | – | – | – | – | – | – | – | 1.97 µM | 5.52 µM | 1.93 µM | 3.67 µM
Nc1nc(NC2C=C(CO)C(O)C2O)c([N+](=O)[O-])c(=O)[nH]1 (configuration not stated) | – | > 100 µM | – | > 100 µM | – | – | – | > 100 µM | – | > 100 µM | – | > 100 µM | – | > 100 µM | – | > 100 µM | – | > 100 µM | – | > 100 µM
